From patent publication US20250304537A1 (Repare Therapeutics Inc., priority 2022, published 2025)
Where two headings read alike, the source gives them in different places.

Test system: PKMYT1 (CDK1 pThr14) in FUOV1 cells
Experiment: PKMYT1 cell-based activity assay, CDK1 pThr14 AlphaLISA in FUOV1 cells
Details: read-out: FUOV-1 CDK1 pThr14 IC50
Method: To determine compound IC50 (PKMYT1 cell-based activity assay, CDK1 pThr14 AlphaLISA), FUOV1 cells were plated into a 96-well TC-treated culture plate at 50000 cells/well in a final volume of 100 μL of media. The plates were then allowed to equilibrate in a biological safety cabinet for 30 minutes before being placed in a humidified incubator at 37 C and 5% CO2 overnight. The next day, 2 μL of PKMYT1 inhibitors or DMSO were diluted in 400 μL of warmed culture media in a 96-well block using a Biomek FX liquid handler. Compounds were mixed in media and then 25 μL was dispensed into each well of the 96-well cell plate. Plates were centrifuged at 300 g for 10 seconds and then placed in the incubator for 2 hours. After the 2-hour incubation with compound, media was removed via aspiration using a multichannel pipette. 30 μL of 1× AlphaLISA lysis buffer (Perkin Elmer) supplemented with protease and phosphatase inhibitors as well as 1 mM PMSF, was added to each well. Plates were rotated at 500 g for 20 minutes to facilitate lysis. Plates were then sealed with aluminum foil and frozen at −80° C. for at least 1 hour. Lysates were thawed at 37° C. for 10 minutes, then 10 μL of each lysate was transferred in duplicate to a white 384-well assay plate. Antibody mixture was prepared in 1× AlphaLISA assay buffer (Perkin Elmer) containing antibodies (5 nM final concentration for rabbit pThr14-CDK1 from Abcam #ab58509 and mouse total CDK1 from ThermoFisher Scientific #33-1800). 5 μL of antibody mixture was added to each well of the assay plate. The assay plate was sealed and stored at 4° C. overnight. The next day, AlphaLISA bead mixture (Perkin Elmer) was prepared in 1× AlphaLISA assay buffer. Anti-rabbit IgG Acceptor (Perkin Elmer #AL104C) and anti-mouse IgG Donor beads (Perkin Elmer #AS104D) were prepared to a concentration of 80 μg/ml in assay buffer. 5 μL of bead mixture was added to each well of the assay plate (20 μg/ml final concentration for each bead). The plate was protected from light and incubated for 2 hours at room temperature. After a 2-hour incubation with beads, the plate was read using the Perkin Elmer EnVision Multimode plate reader with excitation at 680 nm and emission at 615 nm.

Row | Structure (SMILES) | IC50 (2 h, 2 h compound incubation) | also measured
1 | Cc1ccc2[nH]ncc2c1-c1cc(-c2ccnc(OCC3(C#N)CC3)n2)nc(C(N)=O)c1N [Compound 324] |  | IC50 (2 h, 2 h incubation): 303 nM
2 | Cc1ccc2[nH]ncc2c1-c1nc(-c2cccnc2NC2CC2)nc(C(N)=O)c1N [Compound 914, 5-amino-2-(2-(cyclopropylamino)pyridin-3-yl)-6-(5-methyl-1H-indazol-4-yl)pyrimidine-4-carboxamide] |  | IC50 (2 h, 2 hours with compound): 54 nM
3 | Cc1ccc2[nH]ncc2c1-c1cc(-c2ccnc(OCc3ccco3)n2)nc(C(N)=O)c1N [Compound 213] |  | IC50 (2 h, 2 h incubation): 404 nM
4 | Cc1ccc2[nH]ncc2c1-c1nc(-c2ccc(C(F)(F)F)nc2Nc2nccnc2Cl)nc(C(N)=O)c1N [Compound 771] | 96 nM | 
5 | Cc1ccc2[nH]ncc2c1-c1nc(-c2cncnc2NCC(F)(F)F)nc(C(N)=O)c1N [Compound 573] | 182 nM | 
6 | Cc1ccc2[nH]ncc2c1-c1nc(-c2cccnc2NC2CC(=O)N(C)C2)nc(C(N)=O)c1N (stereo not drawn) [Compound 552] | 245 nM | 
7 | Cc1ccc2[nH]ncc2c1-c1nc(-c2cccnc2NCC2CCOCC2)nc(C(N)=O)c1N [Compound 593] | 297 nM | 
8 | Cc1ccc(-c2nc(C(N)=O)c(N)c(-c3c(F)ccc4[nH]ncc34)n2)c(Nc2ncccn2)n1 [Compound 953] |  | IC50 (2 h, 2 hours with compound): 153 nM
9 | Cc1ccc2[nH]ncc2c1-c1nc(-c2cccnc2NC2CCOCC2(C)C)nc(C(N)=O)c1N (stereo not drawn) [Compound 596] | 72 nM | 
10 | Cc1ccc2[nH]ncc2c1-c1nc(-c2cc(F)cnc2NC2CCN(CC(F)(F)F)CC2)nc(C(N)=O)c1N [Compound 863] |  | IC50 (2 h, 2 hours with compound): 2080 nM
11 | [2H]C([2H])([2H])c1ccc2[nH]ncc2c1-c1nc(-c2cccnc2NC23CC(C(N)=O)(C2)C3)nc(C(N)=O)c1N [Compound 962, 5-amino-2-(2-((3-carbamoylbicyclo[1.1.1]pentan-1-yl)amino)pyridin-3-yl)-6-(5-(methyl-d3)-1H-indazol-4-yl)pyrimidine-4-carboxamide] |  | IC50 (2 h, 2 hours with compound): 702 nM
12 | Cc1ccc2[nH]ncc2c1-c1nc(-c2cc(F)cnc2N[C@H]2CC[C@@H](O)C2)nc(C(N)=O)c1N [Compound 797] |  | IC50 (2 h, 2 hours with compound): 48 nM
13 | NC(=O)c1nc(-c2ccc(F)nc2Nc2ncccc2F)nc(-c2c(Cl)ccc3[nH]ncc23)c1N [Compound 913] |  | IC50 (2 h, 2 hours with compound): 8 nM
14 | Cc1ccc2[nH]ncc2c1-c1nc(-c2ccccc2NC2CC(O)(C(F)(F)F)C2)nc(C(N)=O)c1N (stereo not drawn) [Compound 882] |  | IC50 (2 h, 2 hours with compound): 49 nM
15 | Cc1ccc2[nH]ncc2c1-c1cc2c(oc3ccc(N[C@H]4CCOC4)nc32)c(C(N)=O)c1N [Compound 668] | 94 nM | 
16 | Cc1ccc2[nH]ncc2c1-c1nc(-c2cc(F)cnc2N[C@H]2CC[C@H](O)C2)nc(C(N)=O)c1N [Compound 812] |  | IC50 (2 h, 2 hours with compound): 26 nM
17 | Cc1ccc2[nH]ncc2c1-c1nc(-c2cc(F)cnc2NCCN2CCCC2)nc(C(N)=O)c1N [Compound 853] |  | IC50 (2 h, 2 hours with compound): 538 nM
18 | COCCCNc1ncccc1-c1nc(C(N)=O)c(N)c(-c2c(C)ccc3[nH]ncc23)n1 [Compound 537] | 256 nM | 
19 | Cc1ccc2[nH]ncc2c1-c1nc(-c2cc(F)cnc2N[C@H]2COC[C@@H]2O)nc(C(N)=O)c1N [Compound 813] |  | IC50 (2 h, 2 hours with compound): 123 nM

Row | Structure (SMILES) | IC50 (2 h, 2 h compound incubation) | also measured
20 | C[C@]1(O)C[C@@H](Nc2nc(Cl)ccc2-c2nc(C(N)=O)c(N)c(-c3c(Cl)ccc4[nH]ncc34)n2)C1 [Compound 790] | 271 nM | 
21 | COCCOc1ccc2oc3c(C(N)=O)c(N)c(-c4c(C)ccc5[nH]ncc45)cc3c2n1 [Compound 556] | 132 nM | 
22 | Cc1c(F)cc2[nH]ncc2c1-c1nc(-c2cc(F)c(F)cc2NC(=O)C2(C(F)(F)F)CC2)nc(C(N)=O)c1N [Compound 509] | 285 nM | 
23 | NC(=O)c1nc(-c2ccc(F)cc2Nc2ncccn2)nc(-c2c(Cl)ccc3[nH]ncc23)c1N [Compound 949] |  | IC50 (2 h, 2 hours with compound): 50 nM
24 | Cc1c(F)cc2[nH]ncc2c1-c1nc(-c2cccnc2NC2CC2)nc(C(N)=O)c1N [Compound 848] |  | IC50 (2 h, 2 hours with compound): 78 nM
25 | Cc1ccc2[nH]ncc2c1-c1nc(-c2cc(F)cnc2N[C@H](C)C(F)(F)F)nc(C(N)=O)c1N [Compound 889] |  | IC50 (2 h, 2 hours with compound): 56 nM
26 | Cc1ccc2[nH]ncc2c1-c1nc(-c2cccnc2N[C@H]2CCOC2)nc(C(N)=O)c1N [Compound 550] | 7 nM | 
27 | Cc1ccc2[nH]ncc2c1-c1nc(-c2cccnc2NCC2COCCO2)nc(C(N)=O)c1N (stereo not drawn) [Compound 642] | 472 nM | 
28 | Cc1ccc(O)c(C)c1-c1nc(-c2ccnnc2)cc(C(N)=O)c1N [Compound 77] |  | IC50 (2 h incubation): 179 nM
29 | Cc1ccc2[nH]ncc2c1-c1nc(-c2ccc(C#N)cc2NC2CCOCC2)nc(C(N)=O)c1N [Compound 782] | 25 nM | 
30 | Cc1ccc2[nH]ncc2c1-c1nc(-c2cccnc2N[C@@H]2CCOC[C@@H]2F)nc(C(N)=O)c1N [Compound 643] | 7 nM | 
31 | Cc1ccc2[nH]ncc2c1-c1nc(-c2ccc(F)cc2N[C@H]2C[C@](C)(O)C2)nc(C(N)=O)c1N [Compound 861] |  | IC50 (2 h, 2 hours with compound): 95 nM
32 | NC(=O)c1nc(-c2ccc(F)nc2Nc2ncccc2F)nc(-c2c(F)ccc3[nH]ncc23)c1N [Compound 971] |  | IC50 (2 h, 2 hours with compound): 21 nM
33 | Cc1ccc2[nH]ncc2c1-c1cc2c(oc3ccc(O[C@H]4CCOC4)nc32)c(C(N)=O)c1N [Compound 574] | 1330 nM | 
34 | Cc1ccc2[nH]ncc2c1-c1nc(-c2cc(F)cnc2NCC2(C#N)CC2)nc(C(N)=O)c1N [Compound 705] | 33 nM | 
35 | Cc1ccc2[nH]ncc2c1-c1nc(-c2cccnc2N[C@H]2C[C@@](C)(O)C2)nc(C(N)=O)c1N [Compound 918] |  | IC50 (2 h, 2 hours with compound): 47 nM
36 | Cc1ccc2[nH]ncc2c1-c1nc(-c2cccnc2N[C@@H]2CCOC2)nc(C(N)=O)c1N [Compound 547] | 50 nM | 
37 | Cc1ccc2[nH]ncc2c1-c1nc(-c2cc(F)cnc2NCC2(O)CCC2)nc(C(N)=O)c1N [Compound 691] | 228 nM | 

Further lines, with some results ahead:

Row | IC50 (2 h, 2 h compound incubation) | Structure (SMILES) | also measured
38 | 437 nM | Cc1ccc2[nH]ncc2c1-c1nc(-c2cccnc2Nc2nc(F)ccc2F)nc(C(N)=O)c1F [Compound 500, 2-(2-((3,6-difluoropyridin-2-yl)amino)pyridin-3-yl)-5-fluoro-6-(5-methyl-1H-indazol-4-yl)pyrimidine-4-carboxamide] | 
39 | 8 nM | Cc1cnc(Cl)c(Nc2ncccc2-c2nc(C(N)=O)c(N)c(-c3c(C)ccc4[nH]ncc34)n2)n1 [Compound 744] | 
40 | 118 nM | Cc1ccc2[nH]ncc2c1-c1nc(-c2ccc(F)cc2NC(=O)C2(C)CCCO2)nc(C(N)=O)c1N (stereo not drawn) [Compound 528] | 
41 | 140 nM | Cc1ccc2[nH]ncc2c1-c1nc(-c2ccc(C#N)nc2Nc2ncccn2)nc(C(N)=O)c1N [Compound 745] | 
42 | 11 nM | Cc1ccc2[nH]ncc2c1-c1nc(-c2ccc(F)cc2Nc2cccnn2)nc(C(N)=O)c1N [Compound 515] | 
43 | 83 nM | Cc1ccc2[nH]ncc2c1-c1nc(-c2ccc(F)nc2Nc2ncccn2)nc(C(N)=O)c1N [Compound 758] | 
44 | 121 nM | Cc1ccc2[nH]ncc2c1-c1nc(-c2ccc(F)cc2Nc2ncnc(C)c2C#N)nc(C(N)=O)c1N [Compound 639] | 
45 | 87 nM | Cc1ccnc(Nc2cc(F)ccc2-c2nc(C(N)=O)c(N)c(-c3c(C)ccc4[nH]ncc34)n2)n1 [Compound 534] | 
46 | 1340 nM | Cc1ccc2[nH]ncc2c1-c1nc(-c2cc(F)ccc2NS(=O)(=O)C2CC(F)(F)C2)nc(C(N)=O)c1N [Compound 514] | 
47 | 151 nM | Cc1ccc2[nH]ncc2c1-c1nc(-c2ccc(F)cc2Nc2ncc(C#N)cn2)nc(C(N)=O)c1N [Compound 535] | 
48 | 70 nM | Cc1ccccc1Nc1ncccc1-c1nc(C(N)=O)c(N)c(-c2c(C)ccc3[nH]ncc23)n1 [Compound 657] | 
49 | 34 nM | Cc1cccnc1Nc1nc(C#N)ccc1-c1nc(C(N)=O)c(N)c(-c2c(C)ccc3[nH]ncc23)n1 [Compound 737] | 
50 | 389 nM | Cc1cc(C)nc(Nc2cc(F)ccc2-c2nc(C(N)=O)c(N)c(-c3c(C)ccc4[nH]ncc34)n2)n1 [Compound 567] | 
51 | 13 nM | Cc1ncc(F)c(Nc2cc(F)ccc2-c2nc(C(N)=O)c(N)c(-c3c(C)ccc4[nH]ncc34)n2)n1 [Compound 714] | 
52 | 39 nM | Cc1cnc(C)c(Nc2ncccc2-c2nc(C(N)=O)c(N)c(-c3c(C)ccc4[nH]ncc34)n2)n1 [Compound 718] | 
53 | 527 nM | COc1cccc(Nc2ncccc2-c2nc(C(N)=O)c(N)c(-c3c(C)ccc4[nH]ncc34)n2)c1 [Compound 656] | 
54 | 582 nM | Cc1ccc2[nH]ncc2c1-c1nc(-c2cc(F)ccc2Nc2cnn(C)c2)nc(C(N)=O)c1N [Compound 521] | 
55 | 230 nM | Cc1ccc2[nH]ncc2c1-c1nc(-c2cccc(F)c2Nc2ncccn2)nc(C(N)=O)c1N [Compound 769] | 
56 | 160 nM | Cc1ccc2[nH]ncc2c1-c1nc(-c2cccnc2Nc2ccccc2Cl)nc(C(N)=O)c1N [Compound 629] | 
57 | 180 nM | Cc1cncc(Nc2nc(C)ccc2-c2nc(C(N)=O)c(N)c(-c3c(C)ccc4[nH]ncc34)n2)n1 [Compound 688] | 
